Molecules are shown by their SMILES. Counter-ions that a name gives are not always drawn. Like-named read-outs stand apart in the source and are kept apart here.

Assay [1] addresses WDR5 protein (22-334aa) with MLL1 polypeptide (3672-3773aa) (Homo sapiens, UniProt P61964). Put plainly: WDR5-MLL PPI inhibitory activity test (HTRF). In kind it is binding. The conditions noted are these: His-tagged WDR5 and biotin-tagged MLL1 polypeptide. The method in brief: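 His-tagged WDR5 (42 nM working solution) was preincubated with compound for 60 min at room temperature in 25 mM HEPES pH 7.5, 100 mM NaCl, 0.05% Tween 20 (final DMSO 0.5%). Biotin-MLL1 peptide (333 nM working solution) was then added for 10 min, followed by Eu-cryptate/streptavidin-APC detection for 60 min. The 665/620 nm ratio gave IC50.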

The subject of the next assay is MV4-11 cells. Briefly: MV4-11 cell proliferation inhibition experiment (CellTiter-Glo). The format is cell-based. The note with it: Homo sapiens, 144 h, 6 days.
For a further assay, the system named is Jurkat cells. Briefly: Jurkat cell proliferation inhibition experiment (CellTiter-Glo). The conditions noted are these: for IC50: Homo sapiens, 144 h, Jurkat cells, 6 days, CellTiter-Glo, read-out: Jurkat cell proliferation inhibitory activity IC50; for selectivity: ratio of Jurkat cell IC50 to MV4-11 cell IC50. The format is cell-based. The method, then:
Test Example 3: Jurkat (ATCC: TIB-152) Cell Proliferation Inhibition Experiment
ATP in living cells was quantitatively detected by CellTiter-Glo (Promega-G7573) Luminescence Cell Viability Assay Kit to determine the effect of the compounds to be tested on cell proliferation. • Step 1: Jurkat cells were seeded in 96-well plates (Greiner-655098) at a density of 1,500 cells per well with a volume of 140 μL per well; Cell culture medium components included RPM11640 (Gibco-A10491-01)+10% FBS (Gibco-10099-141C)+1% Penicillin-Streptomycin (5,000 U/mL, Gibco-15070-063). • Step 2: On the day of cell seeding, the cells were treated with the compound to be tested. The compound to be tested was diluted with a 3-fold gradient, and a total of 9 concentration gradients were set. DMSO (Sigma, D2650) with 0.5% final concentration or a DMSO solution containing the compound to be tested was added per well with 2 or 3 replicate wells at each concentration point. The plates were incubated at 37° C. in a 5% CO2 incubator (Thermo Scientific Steri-Cycle 371) for 6 days. • Step 3: The cell viability in the control and treatment groups was detected with CellTiter-Glo Luminescent Cell Viability Assay Kit. 50 μL of CellTiter-Glo was added per well, mixed well, and incubated for 15 min at room temperature protected from light. According to the kit instructions, the chemiluminescence signal was read using a multifunctional microplate reader (EnVision, PerkinElmer).
The inhibition percentage (%) of the compound at each concentration point was calculated by the following formula:
Inhibition Percentage (%)=(1−signal value of the group treated with the compound/signal value of the group treated with DMSO)*100.
The value of cell proliferation semi-inhibitory concentration IC50 was calculated using GraphPad Prism software, and the results are shown in Table 3. The ratio of Jurkat cell proliferation inhibitory activity IC50 to MV4-11 cell proliferation inhibitory activity IC50 may be further calculated to obtain selectivity.

The mark [2] stands for this setting: read-out: MV4-11 cell proliferation inhibitory activity IC50.
Where [3] appears, read: read-out: cell proliferation inhibitory activity.

For `[2H]C([2H])([2H])N(Cc1cc(Cn2ccnc2NC)cc2c1C1(CCC1)CN(C(C)c1cc(OCC)c(C#N)cn1)C2=O)C([2H])([2H])[2H]` (stereo not shown) [Compound 100, 6-(1-(5′-((bis(methyl-d3)amino)methyl)-7′-((2-(methylamino)-1H-imidazol-1′-yl)methyl)-1′-oxo-1′H-spiro [cyclobutan-1,4′-isoquinoline]-2′(3′H)-yl)ethyl)-4-ethoxynicotinonitrile], the IC50 in assay [1] was below 0.02 µM; in the assay on MV4-11 cells (setting [2]), 0.005 µM; with MV4-11 cells (setting [3]), below 0.05 µM; in the assay on Jurkat cells, 1.6 µM. Besides, the selectivity in the assay on Jurkat cells is 320 time.
The matching figures for `CCOc1cc([C@H](C)N2CC3(CCC3)c3c(CN(C)C)cc(Cn4ccnc4NC)cc3C2=O)ncc1C#N` [Compound 23, (S)-6-(1-(5′-((dimethylamino)methyl)-7′-((2-(methylamino)-1H-imidazol-1-yl)methyl)-1′-one-1′H-spiro[cyclobutan-1,4′-isoquinoline]-2′(3′H)-yl)ethyl)-4-ethoxynicotinonitrile]: below 0.02 µM, 0.004 µM, below 0.05 µM, 1.4 µM and 350 time.
For `CCOc1cc([C@H](C)N2C[C@@]3(CC3(F)F)c3c(CN(C)C)cc(Cn4ccnc4NC)cc3C2=O)ncc1C#N` (stereo in doubt) [Compound 94, 6-(-1-(5′-((dimethylamino)methyl)-2,2-difluoro-7′-((2-(methylamino)-1H-imidazol-1-yl)methyl)-1′-one-1′H-spiro[cyclopropan-1,4′-isoquinoline]-2′(3′H)-yl)ethyl)-4-ethoxynicotinonitrile formate salt], the IC50 in assay [1] is below 0.02 µM; with MV4-11 cells (setting [2]), 0.003 µM; in the assay with MV4-11 cells (setting [3]), below 0.05 µM; in the assay with Jurkat cells, 1.4 µM. Besides, the selectivity in the assay on Jurkat cells is 466 time.
Taken in the same sequence, the figures for `CCOc1cc([C@H](C)N2CC3(CC(F)(F)C3)c3c(CN(C)C)cc(Cn4ccnc4NC)cc3C2=O)ncc1C#N` [Compound 99] were below 0.02 µM, 0.004 µM, below 0.05 µM, 1.2 µM and 300 time.
Turning to `CCOc1cc([C@H](C)N2C[C@]3(CC3(F)F)c3c(CN(C)C)cc(Cn4ccnc4NC)cc3C2=O)ncc1F` [Compound 91, (S)-5′-((dimethylamino)methyl)-2′-((S)-1-(4-ethoxy-5-fluoropyridine-2-yl)ethyl)-2,2-difluoro-7′-((2-(methylamino)-1H imidazol-1-yl)methyl)-2′, 3′-dihydro-1′H-spiro[cyclopropan-1,4′-isoquinoline]-1′-one], the IC50 in assay [1] is below 0.02 µM; in the assay with MV4-11 cells (setting [2]), 0.01 µM; in the assay with MV4-11 cells (setting [3]), below 0.05 µM; in the assay with Jurkat cells it was 3.1 µM. The selectivity with Jurkat cells is 310 time.
With `CCOc1cc([C@H](C)N2CC3(CCC3)c3c(CN4CC[C@@H](O)C4)cc(Cn4ccnc4NC)cc3C2=O)ncc1F` [Compound 84, 2′-((S)-1-(4-ethoxy-5-fluoropyridine-2-yl)ethyl)-5′-(((R)-3hydroxylpyrrolidin-1-yl)methyl)-7′-((2-(methylamino)-1H-imidazol-1-yl)methyl)-2′,3′-dihydro-1′H-spiro[cyclobutyl-1,4′-isoquinoline]-1′-one], the IC50 in assay [1] is below 0.02 µM; in the assay on MV4-11 cells (setting [3]), below 0.05 µM.
The matching figures for `CCOc1cc([C@H](C)N2CC3(CCC3)c3c(CN4CCC(OC)CC4)cc(Cn4ccnc4NC)cc3C2=O)ncc1C#N` [Compound 81]: below 0.02 µM and below 0.05 µM.
Turning to `CCOc1cc([C@@H](C)N2C[C@]3(CC3(F)F)c3c(CN(C)C)cc(Cn4ccnc4NC)cc3C2=O)ncc1F` (stereo in doubt) [Compound 96, (S)-5′-((dimethylamino)methyl)-2′-((R)-1-(4-ethoxy-5-fluoropyridine-2-yl)ethyl)-2,2-difluoro-7′-((2-(methylamino)-1H imidazol-1-yl)methyl)-2′, 3′-dihydro-1′H-spiro[cyclopropan-1,4′-isoquinoline]-1′-one], the values for the IC50 (in assay [1]; with MV4-11 cells (setting [3])) were below 0.02 µM and below 0.05 µM, respectively.
As to `[2H]C([2H])([2H])C([2H])([2H])Oc1cc(C(C)N2CC3(CCC3)c3c(CN(C)C)cc(Cn4ccnc4NC)cc3C2=O)ncc1C#N` (stereo not shown) [Compound 111, 6-(1-(5′-((dimethylamino)methyl)-7′-((2-(methylamino)-1H-imidazol-1-yl)methyl)-1′-oxo-1′H-spiro[cyclobutan-1,4′-isoquinoline]-2′(3′H)-yl)ethyl)-4-(ethoxy-d5)nicotinonitrile], the values for the IC50 (in assay [1]; with MV4-11 cells (setting [3])) were below 0.02 µM and below 0.05 µM, respectively.
Turning to `CNc1nccn1Cc1cc(CN(C)C)c2c(c1)C(=O)N(C(C)c1ccc(F)c(OC)c1)CC21CCC1` (stereo not shown) [Compound 107, 5′-((dimethylamino)methyl)-2′-(1-(4-fluoro-3-methoxyphenyl)ethyl)-7′-((2-(methylamino)-1H-imidazol-1-yl)methyl)-2′,3′-dihydro-1′H-spiro[cyclobutan-1,4′-isoquinoline]-1′-one], the figures for the IC50 (in assay [1]; in the assay with MV4-11 cells (setting [3])) were below 0.02 µM and below 0.05 µM, respectively.
For `CCOc1cc([C@H](C)N2CC3(CC3)c3c(CN(C)C)cc(Cn4ccnc4NC)cc3C2=O)ncc1F` [Compound 1, (S)-5′-((dimethylamino)methyl)-2′-(1-(4-ethoxy-5-fluoropyridine-2-yl)ethyl)-7′-((2-(methylamino)-1H-imidazol-1-yl)methyl)-2′,3′-dihydro-1′H-spiro[cyclopropan-1,4′-isoquinoline]-1′-one], the IC50 in assay [1] was below 0.02 µM; in the assay on MV4-11 cells (setting [2]), 0.019 µM; in the assay on MV4-11 cells (setting [3]) it was 0.05 to 0.2 µM; in the assay on Jurkat cells, 6.8 µM. For the same molecule, in the assay with Jurkat cells, the selectivity is recorded as 357 time.
For the molecule `CNc1nccn1Cc1cc(CN(C)C)c2c(c1)C(=O)N([C@@H](C)c1cc(OC)c(F)cn1)CC21CC1` [Compound 5], the figures for the IC50 (in assay [1]; in the assay with MV4-11 cells (setting [3])) were below 0.02 µM and below 0.05 µM, respectively.
The matching figures for `CCOc1cc([C@H](C)N2CC3(CCC3)c3c(CN4CC(F)(F)C4)cc(Cn4ccnc4NC)cc3C2=O)ncc1C#N` [Compound 79, (S)-6-(1-(5′-((3,3-difluoroazetidinyl-1-yl)methyl)-7′-((2-(methylamino)-1H-imidazol-1-yl)methyl)-1′-one-1′H-spiro[cyclobutan-1,4′-isoquinoline]-2′(3′H)-yl)ethyl)-4-ethoxynicotinonitrile]: below 0.02 µM and below 0.05 µM.
Taken in the same sequence, the figures for `CCOc1cc([C@H](C)N2CC3(CC(F)(F)C3)c3c(CN(C)C)cc(Cn4ccnc4NC)cc3C2=O)ncc1F` [Compound 98] were below 0.02 µM and 0.05 to 0.2 µM.

These data come from US20240101535A1, “DIHYDROISOQUINOLINONE DERIVATIVE AND APPLICATION THEREOF” (ETERN BIOPHARMA (SHANGHAI) CO., LTD., priority 2020, published 2024).
